According to patent US12077506B2, “Indane derivatives as hypoxia inducible factor-2(α) inhibitors” (priority 2019, dated 2024):

These compounds were tested against HIF-2α (Homo sapiens (Human), UniProt Q99814) (assay: VEGF ELISA Assay). Settings: not given.
Format: cell-based
Protocol: The ability of the disclosed compounds to inhibit HIF-2α was measured by determining VEGF expression in 786-O cells. About 7500 786-O cells were seeded into each well of a 96-well, white, clear bottom plate (07-200-566, Fisher Scientific) with 200 ul growth medium. Four hours later, compounds were dispensed into wells by Tecan D300e digital dispenser with starting concentration of 10 uM and ½ log of dilution down to 1 nM as final concentration. Each concentration of treatment was performed in duplicate. About 20 hours later, medium was removed and fresh medium was added, followed by compounds treatment as described above. After 24 hours, cell culture medium was collected to determine VEGF concentration using an ELISA kit (R&D systems, cat #DVE00) following the manufacturer's instruction.
The EC50 was calculated by GraphPad Prism using the dose-response-inhibition (four parameter) equation. The plate with cells was then subjected to CellTiter-Glo luminescence cell viability assay (Promega) to determine the effect of these compounds on cell numbers after the above treatment.

Sequence of HIF-2α (Q99814 whole entry): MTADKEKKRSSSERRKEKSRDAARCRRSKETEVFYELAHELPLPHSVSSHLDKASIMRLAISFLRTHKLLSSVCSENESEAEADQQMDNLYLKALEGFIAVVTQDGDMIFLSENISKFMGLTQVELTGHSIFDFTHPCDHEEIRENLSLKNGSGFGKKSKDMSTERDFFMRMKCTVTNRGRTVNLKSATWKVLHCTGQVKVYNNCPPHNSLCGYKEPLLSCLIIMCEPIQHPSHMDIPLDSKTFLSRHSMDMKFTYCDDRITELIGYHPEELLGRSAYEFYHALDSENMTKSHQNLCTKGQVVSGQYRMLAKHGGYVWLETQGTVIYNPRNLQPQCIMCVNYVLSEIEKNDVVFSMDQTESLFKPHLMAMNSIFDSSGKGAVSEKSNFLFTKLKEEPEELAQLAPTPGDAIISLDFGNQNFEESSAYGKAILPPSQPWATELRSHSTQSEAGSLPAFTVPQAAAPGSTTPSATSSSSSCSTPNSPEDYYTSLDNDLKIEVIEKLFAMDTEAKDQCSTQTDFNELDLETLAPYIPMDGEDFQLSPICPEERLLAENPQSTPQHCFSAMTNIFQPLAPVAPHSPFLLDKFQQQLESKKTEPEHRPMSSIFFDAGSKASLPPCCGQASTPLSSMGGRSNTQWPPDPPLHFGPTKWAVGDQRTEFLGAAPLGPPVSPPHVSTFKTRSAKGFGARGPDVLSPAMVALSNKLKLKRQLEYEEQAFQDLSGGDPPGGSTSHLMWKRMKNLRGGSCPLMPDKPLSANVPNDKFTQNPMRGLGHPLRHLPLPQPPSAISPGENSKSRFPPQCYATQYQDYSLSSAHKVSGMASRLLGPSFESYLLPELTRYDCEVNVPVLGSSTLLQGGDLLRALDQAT

Compound | EC50 [nM]
[2H][C@]1(O)c2c(ccc(Oc3cc(F)cc(C#N)c3)c2C#N)C(F)(F)C1(F)F [I-13a, (S)-5-(3-cyano-5-fluorophenoxy)-1,1,2,2-tetrafluoro-3-hydroxy-2,3-dihydro-1H-indene-4-carbonitrile-3-d] | 464
[2H][C@@]1(O)c2c(ccc(Oc3cc(F)cc(C#N)c3)c2C#N)C(F)(F)C1(F)F [I-13b, (R)-5-(3-cyano-5-fluorophenoxy)-1,1,2,2-tetrafluoro-3-hydroxy-2,3-dihydro-1H-indene-4-carbonitrile-3-d] | 12
[2H]C1(O)c2c(ccc(Oc3cncc(F)c3)c2C#N)C(F)(F)C1(F)F (stereo not shown) [I-14, 1,1,2,2-tetrafluoro-5-((5-fluoropyridin-3-yl)oxy)-3-hydroxy-2,3-dihydro-1H-indene-4-carbonitrile-3-d] | 183

Same assay, conditions: VEGF expression in 786-O cells, ELISA of culture medium; read-out: EC50

Compound | EC50 [nM]
7-(difluoromethyl)-6-(3,5-difluorophenoxy)-2,2,3,3-tetrafluoro-2,3-dihydro-1H-inden-1-ol [I-4] | 4
N#Cc1cc(F)cc(Oc2ccc3c(c2C(F)F)C(O)C(F)(F)C3(F)F)c1 (stereo not shown) [I-1, 3-((4-(difluoromethyl)-1,1,2,2-tetrafluoro-3-hydroxy-2,3-dihydro-1H-inden-5-yl)oxy)-5-fluorobenzonitrile] | 6
CC1(O)c2c(ccc(Oc3cc(F)cc(C#N)c3)c2C(F)F)C(F)(F)C1(F)F (stereo not shown) [I-2, 3-((4-(difluoromethyl)-1,1,2,2-tetrafluoro-3-hydroxy-3-methyl-2,3-dihydro-1H-inden-5-yl)oxy)-5-fluorobenzonitrile] | 770
N#Cc1cc(F)cc(Oc2ccc3c(c2C(F)F)C(N)C(F)(F)C3(F)F)c1 (stereo not shown) [I-3, 3-((3-amino-4-(difluoromethyl)-1,1,2,2-tetrafluoro-2,3-dihydro-1H-inden-5-yl)oxy)-5-fluorobenzonitrile] | 166
Cc1cc(C#N)cc(Oc2ccc3c(c2C(F)F)C(O)C(F)(F)C3(F)F)c1 (stereo not shown) [I-5, 3-((4-(difluoromethyl)-1,1,2,2-tetrafluoro-3-hydroxy-2,3-dihydro-1H-inden-5-yl)oxy)-5-methylbenzonitrile] | 67
N#Cc1cc(Cl)cc(Oc2ccc3c(c2C(F)F)C(O)C(F)(F)C3(F)F)c1 (stereo not shown) [I-6, 3-chloro-5-((4-(difluoromethyl)-1,1,2,2-tetrafluoro-3-hydroxy-2,3-dihydro-1H-inden-5-yl)oxy)benzonitrile] | 27
OC1c2c(ccc(Oc3cc(F)cc(Cl)c3)c2C(F)F)C(F)(F)C1(F)F (stereo not shown) [I-7, 6-(3-chloro-5-fluorophenoxy)-7-(difluoromethyl)-2,2,3,3-tetrafluoro-2,3-dihydro-1H-inden-1-ol] | 8
OC1c2c(ccc(OC3CC(F)(F)C3)c2C(F)F)C(F)(F)C1(F)F (stereo not shown) [I-8, 6-(3,3-difluorocyclobutoxy)-7-(difluoromethyl)-2,2,3,3-tetrafluoro-2,3-dihydro-1H-inden-1-ol] | 105
N#Cc1cncc(Oc2ccc3c(c2C(F)F)C(O)C(F)(F)C3(F)F)c1 (stereo not shown) [I-9, 5-((4-(difluoromethyl)-1,1,2,2-tetrafluoro-3-hydroxy-2,3-dihydro-1H-inden-5-yl)oxy)nicotinonitrile] | 147
OC1c2c(ccc(Oc3cncc(F)c3)c2C(F)F)C(F)(F)C1(F)F (stereo not shown) [I-10, 7-(difluoromethyl)-2,2,3,3-tetrafluoro-6-((5-fluoropyridin-3-yl)oxy)-2,3-dihydro-1H-inden-1-ol] | 54
CC1(O)c2c(ccc(Oc3cc(F)cc(C#N)c3)c2C#N)C(F)(F)C1(F)F (stereo not shown) [I-15, 5-(3-cyano-5-fluorophenoxy)-1,1,2,2-tetrafluoro-3-hydroxy-3-methyl-2,3-dihydro-1H-indene-4-carbonitrile] | 287
CC1(O)c2c(ccc(Oc3cc(F)cc(C#N)c3)c2Br)C(F)(F)C1(F)F (stereo not shown) [I-16, 3-((4-bromo-1,1,2,2-tetrafluoro-3-hydroxy-3-methyl-2,3-dihydro-1H-inden-5-yl)oxy)-5-fluorobenzonitrile] | 2070
C=Cc1c(Oc2cc(F)cc(C#N)c2)ccc2c1C(C)(O)C(F)(F)C2(F)F (stereo not shown) [I-17, 3-fluoro-5-((1,1,2,2-tetrafluoro-3-hydroxy-3-methyl-4-vinyl-2,3-dihydro-1H-inden-5-yl)oxy)benzonitrile] | 5770
CCc1c(Oc2cc(F)cc(C#N)c2)ccc2c1C(C)(O)C(F)(F)C2(F)F (stereo not shown) [I-18, 3-((4-ethyl-1,1,2,2-tetrafluoro-3-hydroxy-3-methyl-2,3-dihydro-1H-inden-5-yl)oxy)-5-fluorobenzonitrile] | 2500
N#Cc1cc(F)cc(Oc2ccc3c(c2C(F)F)C(O)C(F)(F)C3F)c1 (stereo not shown) [I-19, 3-((4-(difluoromethyl)-1,2,2-trifluoro-3-hydroxy-2,3-dihydro-1H-inden-5-yl)oxy)-5-fluorobenzonitrile] | 151
N#Cc1cc(F)cc(Oc2ccc3c(c2C(F)F)C(O)C(F)(Cl)C3(F)F)c1 (stereo not shown) [I-20, 3-((2-chloro-4-(difluoromethyl)-1,1,2-trifluoro-3-hydroxy-2,3-dihydro-1H-inden-5-yl)oxy)-5-fluorobenzonitrile] | 20
